Our source for the IC50 values is PubChem BioAssay AID504313 (Emory University Molecular Libraries Screening Center, 2011).

SMILES strings stand for the structures. pIC50: −log10 of the molar value. Active and inactive are the calls of the source. The rule behind the calls is not given here.

This assay concerns the target X-box-binding protein 1 (Homo sapiens) (UniProt P17861). As to the kind of experiment: inhibitors of XBP1 reporter signal, dose response, counter-screen, cell-based (AID 504313).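 Note: CHO cells carrying an XBP1 reporter stimulated with tunicamycin; potency is for inhibition of the tunicamycin-induced reporter signal.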 The note with it: XBP1 reporter cell assay, percent of control.
With `Cc1cccc(N=Nc2c(N)n[nH]c2-c2ccc(Cl)cc2)c1`, the IC50 is > 10 µM (inactive).
As for `COc1ccc(NC(=O)/C(Cl)=C(/Cl)S(=O)Cc2ccc(Cl)cc2)cn1` (stereo not drawn), the pIC50 is 5.49.
For `COc1cccc(N2CCN(c3ncnc4c3[nH]c3ccccc34)CC2C)c1` (stereo not drawn), the IC50 result was “inactive”.
`COc1cc([C@@H]2c3cc4c(cc3[C@@H](O)[C@@H](CO)[C@@H]2CO)OCO4)cc(OC)c1O[Si](C)(C)C(C)(C)C`: the IC50 entry was “inactive”.
Turning to `O=C(Nc1nccs1)c1cc2c(s1)CCCCC2`, the IC50 was > 10 µM (inactive).
In the case of `O=C(Nc1ccc(S(=O)(=O)N2CCOCC2)cc1)c1ccc(CN2CCc3ccccc3C2)cc1`, the IC50 result was “inactive”.
As to `CCCCCCn1c(CN2CCCC(C)C2)nc2c1c(=O)n(C)c(=O)n2C` (stereo not drawn), the IC50 is > 10 µM (inactive).
As to `C=C(C)COc1ccc(-c2[nH]ncc2Oc2ccccc2OCC)c(O)c1`, the IC50 entry is “inactive”.
Same read-out and setting: as for `CCCCCCCCCCCCCCCC[n+]1cccc2ccccc21`, the figure is < 0.16 µM (inactive).
As to `O=C(Nc1ccccc1)Nc1cc(OCC(F)(F)F)cc(OCC(F)(F)F)c1`, the negative logarithm of the IC50 (pIC50) is 5.40.
In the case of `Nc1c(C(=O)Nc2nc3ccccc3s2)sc2nc(-c3cccs3)ccc12`, the IC50 result was “inactive”.
For `COc1ccc(C(=O)/C=C/C(=O)N(CC(=O)NCCC(C)C)Cc2cccs2)c(O)c1`, the IC50 result is “inactive”.
As for `COc1ccc(/C=C/C(=O)NC(=S)NNC(=O)c2cccnc2)cc1`, the IC50 is > 10 µM (inactive).
Take `COC(=O)/C=C\C(=O)Nc1cccc([N+](=O)[O-])c1`: the IC50 was > 10 µM (inactive).
`CCOc1ccc(N2C(=O)/C(=C\c3ccc(O)c(OC)c3)S(=O)(=O)C2c2cccc([N+](=O)[O-])c2)cc1` (stereo not drawn): the IC50 is > 10 µM (inactive).
`Cc1ccc(/C=C2\SC(=S)N(CCCC(=O)Nc3ccc(O)cc3)C2=O)cc1`: the pIC50 is > 6.80.
For the molecule `CCC(NC(=O)Nc1nnc(C(F)(F)F)s1)(C(F)(F)F)C(F)(F)F`, the negative-log IC50 (pIC50) was 5.70.
For the molecule `CCOC(=O)c1cnc(-n2nc(C)cc2C)nc1NC1CCCCC1`, the IC50 result was “inactive”.
In the case of `COc1ccc(NC(=O)c2cc(-c3cc(C)cc(C)c3O)n[nH]2)cc1Cl`, the IC50 was > 10 µM (inactive).
On the same count and under the same terms, as for `Cc1ccc(NP(=O)(Oc2ccccc2F)Oc2ccccc2F)cc1`, the entry is “inactive”; as for `O=Cc1s/c(=N\S(=O)(=O)c2ccccc2)n(CCCCl)c1Cl`, “inactive”.
The same measure, in the same setting: under `Cc1cc(C(=O)N/N=C/c2ccc(-c3cccc(Cl)c3Cl)o2)n[nH]1` stands > 10 µM (inactive).
On the same count and under the same terms, under `C#CC(=O)N(c1cccc(OC)c1)C(C(=O)NC1CCCC1)c1cccs1` (stereo not drawn) stands “inactive”; under `CC(C)(C)C(=O)c1no[n+]([O-])c1/C(=N/O)C(C)(C)C`, > 10 µM (inactive).
Turning to `CC(C)(C)c1ccc(O)c(N=Cc2cc(Br)ccc2O)c1`, the IC50 entry is “inactive”.
On the same count and under the same terms, under `Cc1ccc2sc(N(CCCN(C)C)C(=O)c3nc4ccccc4s3)nc2c1C` stands “inactive”; under `Cc1ccccc1CS(=O)(=O)c1nnc([C@H](Cc2ccccc2)NC(=O)OC(C)(C)C)o1`, “inactive”.
In the case of `Cc1nn(-c2ccccc2Cl)c(Cl)c1/C=N/Nc1nc2ccccc2s1`, the negative-log IC50 (pIC50) was > 6.80.
As to `COC(=O)c1cc(NC(=S)Nc2cc(Cl)cc(Cl)c2)cc(C(=O)OC)c1`, the IC50 is > 10 µM (inactive).
In the case of `C=CCn1c(SCC(=O)c2[nH]c(C)c(C(=O)OC)c2C)nc2scc(-c3ccc(OC)c(OC)c3)c2c1=O`, the IC50 result is “inactive”.
On the same count and under the same terms, under `Cc1ccc(-n2ncc(Br)c(Br)c2=O)cc1` stands “inactive”; under `C/C=C/Cn1c(SCCCc2ccccc2)nc2c1c(=O)[nH]c(=O)n2C`, > 10 µM (inactive).
As to `Cc1ccc(S(=O)(=O)/N=C2/C=C(Sc3ncn[nH]3)C(=O)c3ccccc32)cc1`, the IC50 result was “inactive”.
Still for that read-out and setting: under `Cc1cccnc1NC(=O)c1c(O)c2ccccc2n(C)c1=O` stands “inactive”.
`C/C(=N\N=C1\NC(=O)C(CC(=O)Nc2ccc(C)c(Cl)c2)S1)C(C)(C)C` (stereo not drawn): the pIC50 is 5.30.
Consider `COC(=O)c1ccccc1NC1=C/C(=N\S(=O)(=O)c2cccs2)c2ccccc2C1=O`, for which the IC50 entry is “inactive”.
Still for that read-out and setting: as for `COc1ccc(C(=O)c2c(C(F)(F)F)oc3c2C(=O)c2ccccc2C3=O)cc1`, the entry is “inactive”.
For the molecule `C[C@H]1C[C@@H](C)C(=O)[C@@H]([C@H](O)CC2CC(=O)NC(=O)C2)C1`, the pIC50 was 6.68.
`O=C(Nc1ccccc1)C1=C(c2ccccc2)S(=O)(=O)CCS1(=O)=O`: the IC50 entry is “inactive”.
As to `CC(C)(C)c1cc(CN2CCCC(O)C2)c(O)c(C(C)(C)C)c1` (stereo not drawn), the IC50 result was “inactive”.
Take `CCCCn1c(=O)[nH]c(=O)c2c1nc(-c1ccc(OCCC)c(OCC)c1)n2C`: the IC50 is > 10 µM (inactive).
With `O=C1C=CC(=O)N1CCCCCCN1C(=O)C=CC1=O`, the IC50 result is “inactive”.
On the same count and under the same terms, under `Cc1ccc(NC(=O)CSc2nc3ccccc3c3nc(CCc4c(C)n[nH]c4C)nn23)cc1F` stands > 10 µM (inactive); under `CC(C)(C)c1ccc(C(=O)NC(=S)NNC(=O)c2cccs2)cc1`, > 10 µM (inactive).
Take `CCCc1cc(C(=O)Cc2ccc(F)cc2)c(O)cc1O`: the IC50 result was “inactive”.
In the case of `Cc1cc(C)cc(NC(=O)/C(C#N)=C/c2cn(CC(=O)NCc3ccco3)c3ccccc23)c1`, the pIC50 is 5.31.
Consider `COc1ccccc1C(=O)NC(=Nc1nc2ccccc2o1)NC(=O)c1ccccc1OC`, for which the IC50 entry was “inactive”.
Still for that read-out and setting: under `Nc1cc(Cl)c2nonc2c1[N+](=O)[O-]` stands “inactive”.
`CCCCCCCn1c(=O)c(C(=O)Nc2cnccn2)c(O)c2ccccc21`: the pIC50 is 5.68.
For the molecule `O=C(O)c1cccc(COc2ccc(CO)cc2Cl)c1`, the pIC50 was > 6.80.
Turning to `CCN1/C(=C/C(C)=C/c2sc3ccccc3[n+]2CC)Sc2ccccc21`, the IC50 was > 10 µM (inactive).
Consider `CCOc1cc(/C=N/NC(=O)COc2cccc(C)c2)ccc1OC(=O)c1cccs1`, for which the IC50 is > 10 µM (inactive).
In the case of `O=C(c1nnsc1S(=O)(=O)c1ccc(Cl)cc1)N1CCOCC1`, the IC50 entry was “inactive”.
Take `COc1ccc(N2C(=O)CC(Sc3nnnn3-c3ccc(F)cc3)C2=O)cc1` (stereo not drawn): the IC50 was > 10 µM (inactive).
Still for that read-out and setting: as for `O=C(CCl)Nc1cccc(-c2cnc3ccccc3n2)c1`, the figure is > 10 µM (inactive); as for `COC(=O)c1ccc2c(=O)n(CCCCCC(=O)N3CCN(c4ccccc4)CC3)c(=O)[nH]c2c1`, > 10 µM (inactive).
The same measure, in the same setting: under `COc1cc(N(C(=O)Cc2cccs2)C(C(=O)NC2CCCCC2)c2ccc(C)cc2)ccc1-n1cnnn1` (stereo not drawn) stands > 10 µM (inactive).
On the same count and under the same terms, under `CCOC(=O)C(NC(=O)Nc1cccc(C)n1)(OCC(F)(F)F)C(F)(F)F` (stereo not drawn) stands “inactive”; under `O=C(O)CSCC(=O)Nc1ccc(C2CCCCC2)cc1`, “inactive”.
Consider `COc1ccc(N/N=C(\C=N\O)C(=O)c2ccc(OC)cc2)cc1`, for which the IC50 was > 10 µM (inactive).
On the same count and under the same terms, under `COc1ccc(/C=C2/C(=O)ON=C2c2ccccc2)cc1OC` stands > 10 µM (inactive).
In the case of `CCN=C1NN=C(c2cc(C)n(Cc3ccco3)c2C)CS1`, the negative logarithm of the IC50 (pIC50) was > 6.80.
Still for that read-out and setting: under `O=C1C(Nc2ccc(O)cc2)=C/C(=N/S(=O)(=O)c2cccs2)c2ccccc21` stands 5.92.
`Oc1ccc(Br)cc1-c1cc(-c2ccccc2F)[nH]n1`: the IC50 is > 10 µM (inactive).
Still for that read-out and setting: as for `O=C1NC(=S)S/C1=C\C=C\c1ccc([N+](=O)[O-])o1`, the entry is “inactive”.
Take `CCOC(=O)c1c(N)sc(C(O)(C(F)(F)F)C(F)(F)F)c1-c1ccc(Cl)cc1`: the IC50 result is “inactive”.
Still for that read-out and setting: as for `O=C(N/N=C/c1ccc(F)cc1)c1c(O)c2ccccc2[nH]c1=O`, the figure is > 10 µM (inactive); as for `COc1ccc(C2=NN(C(=O)c3ccco3)C(c3cc4ccccc4nc3Cl)C2)cc1` (stereo not drawn), > 10 µM (inactive); as for `COC(=O)c1ccc2c(c1)C(C)(C)C(/C=C/c1ccc(OC)c(OC)c1OC)=[N+]2C`, “inactive”.
The same measure, in the same setting: under `CCOc1cc(S(=O)(=O)Nc2ccc(CC)cc2)ccc1Cl` stands “inactive”; under `CN1CC(c2ccccc2)C2(SC(=S)N(Cc3ccco3)C2=O)C12C(=O)Nc1ccccc12` (stereo not drawn), > 10 µM (inactive); under `O=[N+]([O-])c1ccc(S(=O)(=O)CC(CN2CCCCC2)N2CCCCC2)cc1` (stereo not drawn), “inactive”.
The same measure, in the same setting: as for `CCCCc1nc(NCCN)c(C#N)c2c1CSC(C)(C)C2`, the entry is “inactive”; as for `Cn1cnc([N+](=O)[O-])c1S(=O)(=O)c1ccc(Cl)cc1`, “inactive”.
As to `O=S1(=O)C=C(Sc2nc3cc(Cl)ccc3o2)c2ccccc21`, the pIC50 was 5.35.
On the same count and under the same terms, under `C=C1C(=O)C=C2CN(C(=O)c3ccccc3)[C@@](Cc3ccc(F)cc3)(C(=O)OC)[C@@H]12` stands 5.99.
In the case of `CCOC(=O)c1cnc(-n2nc(C)cc2C)nc1Nc1ccc(O)cc1`, the pIC50 is 5.90.
On to `CCOC(=O)CCS(=O)(=O)c1nc(-c2ccccc2)cc(C(F)(F)F)n1`, for which the IC50 result is “inactive”.
Regarding `CCc1ccc2[nH]c(=O)c(C(c3nnnn3Cc3ccco3)N3CCC(C)CC3)cc2c1` (stereo not drawn), the IC50 was > 10 µM (inactive).
For the molecule `Cc1ccc(C(=O)CC(=O)c2cc(Cl)ccc2O)cc1`, the IC50 entry was “inactive”.
In the case of `NC(=O)CC(NC(=O)Cc1cccc2ccccc12)c1ccc(NCc2cc(F)ccc2F)c([N+](=O)[O-])c1` (stereo not drawn), the IC50 is > 10 µM (inactive).
Take `CC(C)(C)c1ccc(S(=O)(=O)NCC(=O)Nc2sc3c(c2C(N)=O)CCCC3)cc1`: the IC50 is > 10 µM (inactive).
For `Cc1nc2c(=O)n(C)c(=O)n(C)c2nc1Cl`, the IC50 entry was “inactive”.
`C/C(=N\OCc1cccc(C(=O)O)c1)c1ccc(Cl)cc1`: the IC50 entry was “inactive”.
Still for that read-out and setting: as for `CC(C)=NOc1cc(NC(=O)CCl)cc([N+](=O)[O-])c1`, the entry is “inactive”; as for `O=C(Nc1cccc(Cl)c1Cl)c1cc(S(=O)(=O)NCCc2ccccc2)ccc1F`, “inactive”.
In the case of `Cc1cc(/C=N/n2cnnc2)c(C)n1-c1ccc(OCc2ccc(Cl)cc2)cc1`, the pIC50 is 6.25.
As to `Cc1ccc(-c2ccc(/C=C3\C(=O)ON=C3c3ccccc3)o2)c([N+](=O)[O-])c1`, the IC50 is > 10 µM (inactive).
